In patent US6544750B1, “Peptide analogs as selective inhibitors of thrombin activation of protease activated receptor 1” (Thromgen, Inc., priority 1999, dated 2003):
Entries after “also recorded” stand apart in the source; their conditions may differ. Ends that are not written are not given here.

Tests used:
[1] = system: platelets (platelet-rich plasma); experiment: γ-thrombin-induced platelet aggregation in platelet-rich plasma; assay type: cell-based, human; conditions: for peptide concentration at which γ-thrombin-induced platelet aggregation returned: 70 nM γ-thrombin; for Fold Increase in Aggregation Inhibition over RPPGF: γ-thrombin, compared to RPPGF at 0.2 mM
Experimental: (§1) Fresh whole blood was collected and mixed with 0.013 M sodium citrate and platelet-rich plasma was prepared according to the method of Meloni et al., J. Biol. Chem. 266, 6786 (1991). Platelet-rich plasma with a normalized platelet count between 2-2.5×10^8 platelets/ml was added to a cuvette of an aggregometer (Chronlog Corp., Havertown, Pa.), standardized using the protocol of Meloni et al., supra. Peptides to be examined were added to the cuvette and the mixture stabilized for a few moments. Once the baseline was stabilized, γ-thrombin (10-70 NM) (Haematologic Technologies, Essex Junction, Vt.) was added to determine the minimal concentration of the agonist necessary to achieve full platelet aggregation. All investigations with peptides were performed using threshold concentrations of γ-thrombin. Aggregation was allowed to proceed for 5 minutes before stopping. When ADP-induced platelet aggregation studies were performed, 1-5 μM ADP (Sigrna) was added to the cuvette containing platelet-rich plasma.

[2] = system: platelets (platelet-rich plasma); experiment: ADP-induced platelet aggregation in platelet-rich plasma; assay type: cell-based, human; conditions: 1 mM peptide, 4.5 μM ADP
Experimental: as §1

[3] = system: Normal human lung fibroblasts (NHLF); experiment: α-thrombin-induced calcium mobilization in fibroblasts (fura-2); assay type: cell-based; conditions: for Ca2+ % Inhibition At 0.2 mM Peptide: thrombin-induced calcium mobilization in fibroblasts
Experimental: The second assay developed to assess peptides from the combinatorial libraries uses inhibition of α-thrombin-induced calcium mobilization in fibroblasts. Normal human lung fibroblasts (NHLF) were purchased from Clonetics, San Diego, Calif., an affiliate of Bio-Wittaker, Walkersville, Md. The cytoplasmic free Ca^2+ concentration ([Ca^2+]i) was measured using the fluorescent Ca^2+ indicator fura-2 (Molecular Probes, Inc., Eugene, Oreg.). Suspension of fibroblasts in Hepes-Tyrode's buffer were loaded with fura-2 by incubation at 37° C. with 2 μM fura-2/acetoxymethyl ester for 45 minutes according to the method of Rasmussen et al., J. Biol. Chem. 268, 14322 (1993). The labeled fibroblasts were separated from excess probe by washing by centrifugation at 1000 rpm (180×g). Aliquots of the labeled fibroblasts were transferred into a quartz cuvette with a magnetic stirrer, which was then placed in a thennostatically controlled chamber at 37° C. in a fluorescence spectrophotometer (Perkin-Elmer LS50B spectrofluorometer, Chicago, Ill.). Reagents, test peptide (SEQ ID NO: 5) (from 0.2 mM to effective lower concentration), and α-thrombin (2-4 nM), were sequentially added directly to the cuvette. The excitation wavelengths varied between 340 and 380 nm. Fluorescence was measured by recording emitted light at 510 nm as reported by Fisher et al., Mol Pharm. 35, 195 (1989). The minimum emission was determined on a solubilized fibroblast sample in the presence of 10 mM EDTA; maximum emission was determined on the same sample with 10 mM Ca^2+ added. The intrafibroblast free Ca^2+ concentration was calculated by the method of Grykiewicz et al., J. Biol. Chem. 260, 3440 (1985). The ratio of the fluorescence readings was calculated as R=340/380 nm and processed according to the equation [Ca^2+]i=KD((R−Rmim)/Rmax−R)) (Sf2/Sb2) to determine the intrafibroblast free Ca^2+ concentration. The KD for fura-2 was assumed to be 224 nM. Rmax and Rmin are the maximum and minimum fluorescence ratios measured at the end of the experiment, respectively; Sf2 and Sb2 are the fluorescence values at 380 nm in the absence and presence of saturating [Ca 2+], respectively. The reaction was monitored for 3-5 minutes. […] In FIG. 4, peptide RGDWC (SEQ ID NO: 20) at 0.2 mM inhibited 31% of 4 nM α-thrombin-induced Ca^2+ mobilization in fibroblasts.

[4] = target: T1, biotin-NAT12 (NATLDPRSFLLR, peptide from PAR1) (Homo sapiens, UniProt P25116); experiment: Biotin-NAT12 binding assay to peptides coupled to microtiter plates; conditions: relative to RPPGF given arbitrary binding level of 1
Experimental: A third assay was developed to ascertain the ability of biotin-NAT12 (NATLDPRSFLLR, SEQ ID NO: 41) to directly bind to peptides linked to microtiter plates. In this assay, peptide analogs were linked to microtiter plate cuvette wells by incubation of the peptide in 0.1 M Na2CO3, pH 9.6 buffer overnight at 4° C. After coupling the peptide to the cuvette well, the wells were dumped and each well was blocked with 1% bovine serun albumin in 0.01 M Na3PO4, 0.15 M NaCl, at pH 7.4. After incubation for 1 hour, the wells were dumped and washed three times with PBS-Tween. The wells were then incubated with biotin-NAT12. The amount of biotin-NAT12 bound was determined by adding streptavidin-peroxidase followed by adding turbo TMB (Pierce).
In decreasing order of binding level, these peptides include: RGKSC, RGKMC, RGKHC, RGKKC, RGKFC, RGKLC, RGKWC, and RGKVC (SEQ ID NOS 18, 7, 13, 14, 11, 1, 5 and 19, respectively). […] The best to least RGDO4C (SEQ ID NO: 44) peptides to bind biotin-NAT12 listed in Table VI are: RGDSC, RGDGC, RGDQC, RGDEC, RGDIC, RGDPC, RGDDC, and RGDYC (SEQ ID NOS 34, 28, 23, 22, 36, 38, 27 and 35, respectively). A solid phase peptide-peptide binding assay was used to determine biotin-NAT12 binding to library peptides. Test peptides in 0.1 M Na2CO3, pH 9.6 buffer, at 10 μg/well in 50 μl volume, were coupled to microtiter plate wells by overnight incubation at 4° C. After incubation, the contents of the wells were discarded and the wells were washed with a pH 7.4 buffer containing 0.01 M Na3PO4, 0.15 M NaCl, and 0.01% Tween 20. After blocking each well with 1% radioimmunoassay grade bovine serum albumin, the linked peptides were incubated with 100 μl of 100 μM biotin-NAT12 for 1 hour at 37° C. After incubation, the contents of the wells were dumped and the wells were washed three times (100 μl/well each time) with the buffer identified above. Each well then was incubated with 100 μl of 2 μg/ml solution of Immuno-Pure streptoavidin horeseradish peroxidase conjugate (Pierce Chemical Co., […], Ill.) for 1 hour at room temperature. The contents of the wells were discarded and the wells were washed three times as described above. The wells were then incubated with 100 μl of peroxidase-specific fast reacting substrate, turbo-3,3′,5,5′-tetramethylbenzidine (turbo-TMB, Pierce) for 5 minutes at room temperature and the developing color reaction was stopped by the addition of 100 μof 1 M phosphoric acid. The absorbance was measured at 450 nm using a Microplate Auto Reader EL311 (Bio-Tek, Winooski, Vt.).

[5] = target: T1, biotin-NAT12 (NATLDPRSFLLR, peptide from PAR1); experiment: as above; conditions: peptides at 10 μg/ml coupled to microtiter plate
[6] = RGKO4C sublibrary, platelet-rich plasma

Level of Binding to Biotin-NAT12 ([4]; RGKO4C sublibrary)	Level of Binding to Biotin-NAT12 ([4]; RGDO4C sublibrary)	Substance	Fold Increase in Aggregation Inhibition over RPPGF [1, 6]	Ca2+ % Inhibition At 0.2 mM Peptide ([3]; RGKO4C sublibrary)	Fold Increase in Aggregation Inhibition over RPPGF ([1]; RGDO4C sublibrary)	Ca2+ % Inhibition At 0.2 mM Peptide ([3]; RGDO4C sublibrary)	also measured
1.3		Arg-Gly-Lys-Trp-Cys (RGKWC-NH2) [peptide of the H-R-G-K-O4-C-NH2 sublibrary]	1.3 fold	62.5%			peptide concentration at which γ-thrombin-induced platelet aggregation returned ([1]; platelet-rich plasma): 0.125 mM; effect on ADP-induced platelet aggregation (in words) [2]: did not inhibit; peptide concentration at which α-thrombin overcame the inhibitory effect on Ca2+ mobilization ([3]; 2 nM α-thrombin, fibroblasts): 12.5 µM; peptide concentration at which α-thrombin-induced calcium mobilization is abolished ([3]; 2 nM α-thrombin, fibroblasts): 0.2 mM; peptide concentrations blocking α-thrombin-induced Ca2+ mobilization ([3]; 2 nM α-thrombin, fibroblasts): ≥ 50 µM; level of biotin-NAT12 binding compared with other peptides (in words) [5]: binds to a greater extent than peptide RGDWC; also recorded: greater than RPPGF; also recorded: less than that seen with the multiple branched peptide MAP4RPPGF
1.0	1	Arg-Pro-Pro-Gly-Phe (RPPGF) [bradykinin analog peptide used as control, reference compound]	1.0 fold		1 fold		peptide concentration at which γ-thrombin-induced platelet aggregation returned ([1]; platelet-rich plasma): 0.25 mM; effect on ADP-induced platelet aggregation (in words) [2]: did not inhibit
	0.99	RGDRC: peptide of the H-R-G-D-O4-C-NH2 sublibrary (H-RGDRC-NH2)			5 fold	0%	
	1.44	RGDSC: peptide of the H-R-G-D-O4-C-NH2 sublibrary (H-RGDSC-NH2)			5 fold	0%	level of biotin-NAT12 binding compared with other peptides (in words) [5]: equivalent to the ability of RGKWC
	0.746	RGDTC: peptide of the H-R-G-D-O4-C-NH2 sublibrary (H-RGDTC-NH2)			7.5 fold	0%	
	0.723	RGDVC: peptide of the H-R-G-D-O4-C-NH2 sublibrary (H-RGDVC-NH2)			15 fold	2.56%	
	1.05	RGDYC: peptide of the H-R-G-D-O4-C-NH2 sublibrary (H-RGDYC-NH2)			5 fold	16.4%	
0.98		RGKIC: peptide of the H-R-G-K-O4-C-NH2 sublibrary (H-RGKIC-NH2)	1.3 fold	13.8%			
1.5		RGKLC: peptide of the H-R-G-K-O4-C-NH2 sublibrary (H-RGKLC-NH2)	7.7 fold	8.33%			
2.1		RGKMC: peptide of the H-R-G-K-O4-C-NH2 sublibrary (H-RGKMC-NH2)	1.3 fold	7.95%			
0.38		RGKRC: peptide of the H-R-G-K-O4-C-NH2 sublibrary (H-RGKRC-NH2)	2.5 fold	35.7%			
0.597		RGKTC: peptide of the H-R-G-K-O4-C-NH2 sublibrary (H-RGKTC-NH2)	4.4 fold	26.8%			
0.94		RGKYC: peptide of the H-R-G-K-O4-C-NH2 sublibrary (H-RGKYC-NH2)	1.3 fold	0%			
